Source: patent US4188398A, “Method for treating epilepsy” (priority 1978, dated 1980)

Key:
[1] = Clinical comparison in petit mal epilepsy; format: in vivo, human (patients)
Camphor convulsions test = conditions: for ED50: Mus musculus, read-out: ED50 (camphor)
Experimental: (§2) The anticonvulsant action of the proposed preparation was tested on mice weighing 19 to 25 g and rats weighing 120 to 150 g by conducting maximum electroshock, corazol, strychnine, camphor, nicotine and arecoline tests.

[2] = Neurotoxicity: rightening, gait, stance, muscle tone and equilibrium tests; format: in vivo; conditions: P = 0.05; for TD50: in vivo, read-out: TD50 (mean neurotoxic dose)
Experimental: The neurotoxicity levels were determined by conducting rightening, gait, stance, muscle tone and equilibrium tests.

[3] = Duration of urethane-induced sleep; format: in vivo; conditions: milontin 100 mg/kg; for Average Duration of Urethane-Induced Sleep: P = 0.05, urethane 1,000 mg/kg, proposed preparation 100 mg/kg, zarontin 150 mg/kg
Text: (§1) Nembutal was used as a trunk narcotic, and urethane as a cortical narcotic.

[4] = Acute toxicity, single intraperitoneal administration, 48 hours (Litchfield and Wilcockson); format: in vivo, white mice; conditions: intraperitoneal, white mice, P=0.05; for LD50: 2880 min; for LD50 at 48 h: mouse, in vivo, ip
Experimental: The acute toxicity of the proposed preparation was tested on white mice weighing 19 to 20 g, by single intraperitoneal administrations of 1.5- and 10-percent colloidal solutions of the anticonvulsant in a 0.5-percent solution of carboxymethyl cellulose. The animals were observed during 48 hours. In order to establish the median lethal dose (LD50), the experimental data was statistically processed using the Litchfield and Wilcockson techniques. Milontin and zarontin were analyzed in the same way.

[5] = Maximum electroshock test
Experimental: as §2

[6] = Duration of Nembutal-induced sleep; format: in vivo; conditions: for Average Duration of Nembutal-Induced Sleep: P = 0.05, Nembutal 40 mg/kg, proposed preparation 100 mg/kg, zarontin 150 mg/kg, milontin 100 mg/kg
Text: as §1

animal or person = assay: animal or person
Experimental: The general effect of the proposed preparation was tested on white mice, rats and rabbits.

Experimental for Corazol convulsion test: as §2

Structure (SMILES): CCC1(C)CC(=O)NC1=O (stereo not shown) [suxilep]
- patients with improvement [1]: 10 out of 12

Structure (SMILES): CN1C(=O)CC(c2ccccc2)C1=O (stereo not drawn) [Milontin, N-methyl-α-phenylsuccinimide]
- ED50 (Camphor convulsions test): 99 mg/kg
- protection index I=TD50/ED50, Camphor (Camphor convulsions test; camphor): 3.44
- protection index PI (mean lethal dose / mean effective dose), Camphor (Camphor convulsions test; camphor): 9.6
- TD50 (mean neurotoxic dose) [2]: 340(278 to 416) mg/kg
- TD50 [2]: 340 mg/kg
- Average Duration of Urethane-Induced Sleep [3]: 16.5 ± 4.6 min
- prolongation of duration of urethane-induced sleep [3]: more than 3 times
- LD50 [4]: 950 (792 to 1,140) mg/kg
- LD50 at 48 h [4]: 950 mg/kg
- ED50 (Corazol convulsion test; Mus musculus, read-out: ED50 (corazol)): 87 mg/kg
- protection index I=TD50/ED50, Corazol (Corazol convulsion test; corazol): 3.91
- protection index PI (mean lethal dose / mean effective dose), Corazol (Corazol convulsion test; corazol): 10.9
- antistrychnine effect, ranking of the three drugs (in words): at its lowest
- ED50 (strychnine) (strychnine): 230 mg/kg
- protection index I=TD50/ED50, Strychnine (strychnine): 1.47
- protection index PI (mean lethal dose / mean effective dose), Strychnine (strychnine): 4.14
- ED50 ([5]; Mus musculus, read-out: ED50 (Electroshock)): 64 mg/kg
- protection index I=TD50/ED50, Electroshock ([5]; electroshock): 5.3
- protection index PI (mean lethal dose / mean effective dose), Electroshock ([5]; electroshock): 14.85
- anticonvulsant activity in maximum electroshock test ([5]; in words): anticonvulsant activity was only exhibited by the proposed preparation and milontin
- Average Duration of Nembutal-Induced Sleep [6]: 139.2 ± 33.2 min
- prolongation of the hypnotic action of Nembutal ([6]; in words): statistically significant prolongation

Structure (SMILES): CCCC(C)C1(CC)C(=O)NC(=O)NC1=O (stereo not shown) [Nembutal]
- Average Duration of Nembutal-Induced Sleep [6]: 40.8 ± 23.04 min

Structure (SMILES): CCOC(N)=O [Urethane]
- Average Duration of Urethane-Induced Sleep [3]: 3.3 ± 1.4 min

Structure (SMILES): CCC1(C)CC(=O)NC1=O (stereo not shown) [pyknolepsin]
- patients with improvement [1]: 12 out of 14

Structure (SMILES): CCC1(C)CC(=O)NC1=O (stereo not drawn) [Zarontin, α-methyl, ethylsuccinimide]
- ED50 (Camphor convulsions test): 131 mg/kg
- TD50 (mean neurotoxic dose) [2]: 590(513 to 678) mg/kg
- TD50 [2]: 590 mg/kg
- Average Duration of Urethane-Induced Sleep [3]: 4.7 ± 2.1 min
- LD50 [4]: 1,325 (1,200 to 1,462) mg/kg
- LD50 at 48 h [4]: 1320 mg/kg
- dose inducing sleep (animal or person; intraperitoneal): ≥ 900 mg/kg
- dose causing tremors of the hind extremities (animal or person; mouse, in vivo, ip): 700 mg/kg
- ED50 (strychnine) (strychnine): 152 mg/kg
- Average Duration of Nembutal-Induced Sleep [6]: 76.9 ± 28.9 min

Structure (SMILES): CC1(c2ccccc2)CC(=O)N(CN2CCOCC2)C1=O (stereo not shown) [morpholep]
- patients with improvement [1]: 12 out of 14
